Measured values published in patent US7317187B2, “Frontal affinity chromatography/MALDI tandem mass spectrometry” (priority 2004, dated 2008).

Columns and labels:
[1] = molecular target: T1, entrapped dihydrofolate reductase (DHFR) (Escherichia coli, UniProt P0ABQ4); test: FAC/ESI-MS/MS on monolithic column with entrapped DHFR; format: binding, E. coli; conditions: DHFR loaded column (25 pmol initial loading), compounds infused at 50 nM, 2 mM ammonium acetate, ESI/MS/MS detection
T1 construct: made in house

[2] = molecular target: dihydrofolate reductase (DHFR) (Escherichia coli, UniProt P0ABQ4); conditions: cited from earlier work

| Compound | retention (elution) time [1] | Kd [2] |
| --- | --- | --- |
| CC(=O)NC(=O)[C@H](O)[C@@H](O)[C@H](O)[C@H](O)CO [N-acetyl-gluconamide] | 1.5 min |  |
| Nc1nc2ncc(CNc3ccc(C(=O)N[C@@H](CCC(=O)O)C(=O)O)cc3)nc2c(=O)[nH]1 [folic acid] | 3 min | 11 µM |
